Reference: patent EP2329817A1, “Retinoic acid receptor antagonists, miR-10a inhibitors and inhibitors of HOXB1 or HOXB3 repressors for treating pancreatic cancer” (Ernst-Moritz-Arndt-Universität Greifswald, priority 2009, dated 2011)

Columns and labels:
PaTu-T cells = experiment: Cell survival and cell cycle distribution by propidium iodine staining (FACS); assay type: cell-based, human
Excerpt: Targeting endogenous miR-10a with Morpholinos rendered PaTu-T-cells non-invasive and prevented metastatic behaviour in zebrafish embryos, whereas a control Morpholino had no such effect (Fig.4 B, Table1 and Supplemental Table 1). […] (analysed by propidium iodine (PI) staining, data not shown).
We used the selective RARα antagonist Ro-41-5253; to analyze its anti-migratory activity in an in vitro migration assay ("scratch assay") and in the zebrafish xenotransplantation model, respectively. […] Similar results were obtained when PaTu-T cells were treated with RAR -specific siRNAs (Supplemental Table 1 and Supplemental Fig. 1).
Supplemental Figure 3: Cell cycle analysis of RARα siRNA or Ro-415253 treated PaTu-T cells. Cells were treated with either DMSO control (A), RARα siRNA (B) or 200 nM Ro-415253 (C) and fixed after 24h with 70% EtOH. Following propidium iodine (PI) staining the cells were analysed by a LSR2 FACS sorter (Becton Dickinson). […] Gate P2 indicates cells in G0/1 phase, gate 3 represents cells in S phase and gate 4 represents Cells in M/G2 phase.

[1] = test system: xenotransplanted primary human tumours; experiment: Zebrafish embryo xenotransplantation of pretreated fragments of resected primary human tumours; assay type: in vivo; conditions: for Migration <5 / Migration 5 to 20 / Migration >20 / total >5 / total >5, final line, number: number of embryos; for total >5, final line, per cent / total >5, final line, number: whole experiment; for presence of micro-metastases at 3dpl, Migration 5 to 20: number in square brackets
Procedure: Zebrafish (Danio rerio) (Tuebingen line, AIB strain (Albinos) and Tg (fli1:eGFP) were handled in compliance with local animal care regulations and standard protocols of the Netherlands and Germany. Fish were kept at 28°C in aquaria with day/night light cycles (10 h dark versus 14 h light periods). The developing embryos were kept in an incubator at constant temperatures.
Cells were stained with CM-Dil (red fluorescence) at a 1:1000 dilution according to the manufacturers protocol (Vybrant, Invitrogen). Cells were suspended in 67% DPBS for injection into embryos. 2dpf zebrafish embryos were dechorionated and tranquilized with tricaine (Sigma). An injection needle (15µm diameter) with a manual injector (Eppendorf; Celltram Vario) was used to inject ∼200 cells into the yolk sac of 2dpf zebrafish embryos. On average 80 embryos were injected for each treatment and embryos with detectable cell scatter 2 h after the transfer (and therefore presumably due to the transfer procedure) were excluded from further analysis. Presence of cells was checked after 2 h incubation at 31°C and embryos were subsequently kept at 35°C. We defined metastasis based on the number of fluorescent cells that were detected outside the yolk sac 2 days after the transfer. Presence of 5 or more cells was considered "metastasised" and percentages of metastasised fish in each experiment were counted. The occurence of micro-metastasis is indicated by cell clusters of ≥4 cells presumably originating from cell division. PaTu-S cells and ASPC1 cells were transfected ON with indicated concentrations of miR-10a siRNA in the presence of ICA-Fectin TM442 (Eurogentec, Belgium). Whole cell lysates were prepared 36h post-transfection and 40 µg of total lysates were separated on 7.5% PAA-gels and blotted with anti E-cadherin, α-catenin, β-catenin (all mAbs, Transduction Labs) and actin antibodies (mAb Sigma-Aldrich, Germany).
Human resection specimens were obtained at the Universitätsklinikum Greifswald according to local ethical guidelines and after obtaining informed patient consent. Tumour tissue was cut into small pieces using a scalpel blade. Tissue fragments were then washed with 67% DPBS and stained with 1:500 CM-Dil. Stained tissue fragments of approximal ^1/5 to ½ the size of the yolk sac were transferred with a glass transplantation needle into the yolk. After 2 h at 31 °C the embryos were checked that the yolk had sealed itself and the embryos were incubated at 35°C for the remainder of the experiment.
Small tissue fragments from two well differentiated ductal adenocarcinoma resection specimen of the Pancreas head (2 and 3) were incubated with miR-10a Morpholino or RARα inhibitor and, following staining with carbocyanine dye (CM-Dil), transplanted into zebrafish embryos (Controls: DMSO and control-Morpholino). Formation of micrometastases in the fish was assessed at 3 dpi by analysis of present cell aggregates (including daughter cells) outside the yolk sac. […] Tumour grading and classification was done according to histopathological examination.

Compound: CCCCCCCOc1cc2c(cc1/C(C)=C/c1ccc(C(=O)O)cc1)C(C)(C)CCS2(=O)=O [Ro-41-5253, Benzoic acid, 4-(2-(7-(heptyloxy)-3,4-dihydro-4,4-dimethyl-2H-1-benzothiopyran-6-yl)-1-propenyl)-, S,S-dioxide, (E)]
- cell cycle distribution (PaTu-T cells; 24h, Ro-415253 at 200 nM, PI staining, FACS): No differences
- general cell survival (PaTu-T cells; propidium iodine (PI) staining): no adverse affects
- Migration <5 ([1]; Patient 1 (adenocarcinoma of the ampulla vateri, G3), Day 1): 1
- Migration 5 to 20 ([1]; Patient 1, Day 1): 2
- Migration >20 ([1]; Patient 1, Day 1): 0
- total >5 ([1]; Patient 1, Day 1): 2
- Migration 5 to 20 ([1]; Patient 1, Day 2): 2
- Migration <5 ([1]; Patient 1, Day 2): 0
- Migration >20 ([1]; Patient 1, Day 2): 0
- total >5 ([1]; Patient 1, Day 2): 2
- Migration 5 to 20 ([1]; Patient 1, Day 3): 1
- Migration <5 ([1]; Patient 1, Day 3): 0
- Migration >20 ([1]; Patient 1, Day 3): 0
- total >5 ([1]; Patient 1, Day 3): 2
- total >5, final line, per cent ([1]; Patient 1): 3.1%
- total >5, final line, number ([1]; Patient 1): 2
- Migration <5 ([1]; Patient 2 (well-differentiated adenocarcinoma of the pancreas, G2), Day 1): 1
- Migration 5 to 20 ([1]; Patient 2, Day 1): 3
- Migration >20 ([1]; Patient 2, Day 1): 0
- total >5 ([1]; Patient 2, Day 1): 3
- Migration 5 to 20 ([1]; Patient 2, Day 2): 2
- Migration <5 ([1]; Patient 2, Day 2): 1
- Migration >20 ([1]; Patient 2, Day 2): 0
- total >5 ([1]; Patient 2, Day 2): 2
- Migration 5 to 20 ([1]; Patient 2, Day 3): 1
- Migration <5 ([1]; Patient 2, Day 3): 0
- Migration >20 ([1]; Patient 2, Day 3): 0
- total >5 ([1]; Patient 2, Day 3): 1
- total >5, final line, per cent ([1]; Patient 2): 4.3%
- total >5, final line, number ([1]; Patient 2): 3
- Migration <5 ([1]; Patient 3 (well-differentiated adenocarcinoma of the pancreas, G2), Day 1): 0
- Migration 5 to 20 ([1]; Patient 3, Day 1): 3
- Migration >20 ([1]; Patient 3, Day 1): 0
- total >5 ([1]; Patient 3, Day 1): 3
- Migration 5 to 20 ([1]; Patient 3, Day 2): 3
- Migration <5 ([1]; Patient 3, Day 2): 0
- Migration >20 ([1]; Patient 3, Day 2): 0
- total >5 ([1]; Patient 3, Day 2): 3
- Migration 5 to 20 ([1]; Patient 3, Day 3): 3
- Migration <5 ([1]; Patient 3, Day 3): 0
- Migration >20 ([1]; Patient 3, Day 3): 0
- total >5 ([1]; Patient 3, Day 3): 3
- total >5, final line, per cent ([1]; Patient 3): 4.5%
- total >5, final line, number ([1]; Patient 3): 3
- total >5 [%] ([1]; Table 2, Patient 1): 3.1%
- presence of micro-metastases at 3dpl, Migration 5 to 20 ([1]; Table 2, Patient 1): 0
- Migration 5 to 20 ([1]; Table 2, Patient 1): 2
- Migration <5 ([1]; Table 2, Patient 1): 0
- Migration >20 ([1]; Table 2, Patient 1): 0
- total >5 [%] ([1]; Table 2, Patient 2): 4.3% 4.4x10^-5
- presence of micro-metastases at 3dpl, Migration 5 to 20 ([1]; Table 2, Patient 2): 0
- Migration 5 to 20 ([1]; Table 2, Patient 2): 3
- Migration <5 ([1]; Table 2, Patient 2): 1
- Migration >20 ([1]; Table 2, Patient 2): 0
- total >5 [%] ([1]; Table 2, Patient 3): 4.5%
- presence of micro-metastases at 3dpl, Migration 5 to 20 ([1]; Table 2, Patient 3): 0
- Migration 5 to 20 ([1]; Table 2, Patient 3): 3
- Migration <5 ([1]; Table 2, Patient 3): 0
- Migration >20 ([1]; Table 2, Patient 3): 0
- reduction of invasiveness and metastatic behaviour ([1]; compared to the DMSO treated control tissue of the same tumour specimen): > 95%
- metastatic behavior of treated specimen ([1]; p< 0.001, student t-test): significant decrease
